Measurements from ChEMBL document CHEMBL4330155, “NaBr-Induced Production of Brominated Azaphilones and Related Tricyclic Polyketides by the Marine-Derived Fungus Penicillium janthinellum HK1-6” (J Nat Prod, 2019).
≈ marks a conversion by molar mass, not a printed value.

Tests used:
SMMC-7721 = experiment: Cytotoxicity again human SMMC7721 cells by MTT method; type: cell-based
Staphylococcus aureus [1] = experiment: Antibacterial activity against Staphylococcus aureus ATCC 43300 by XTT dye based assay; type: functional
Staphylococcus aureus [2] = experiment: Antibacterial activity against Staphylococcus aureus ATCC 33591 by XTT dye based assay; type: functional
Staphylococcus aureus [3] = experiment: Antibacterial activity against Staphylococcus aureus ATCC 25923 by XTT dye based assay; type: functional
Staphylococcus aureus [4] = experiment: Antibacterial activity against Staphylococcus aureus ATCC 29213 by XTT dye based assay; type: functional
Enterococcus faecalis = experiment: microbe, parasite or virus in culture; type: functional; conditions: ATCC 51299
Description: Antibacterial activity against Enterococcus faecalis ATCC 51299 by XTT dye based assay

Enterococcus faecium = experiment: Antibacterial activity against Enterococcus faecium ATCC 35667 by XTT dye based assay; type: functional
Escherichia coli = experiment: microbe, parasite or virus in culture; type: functional; conditions: ATCC 25922
Description: Antibacterial activity against Escherichia coli ATCC 25922 by XTT dye based assay

Compound | IC50 (SMMC-7721) [µM] | MIC (Staphylococcus aureus [1]) [mg/L] | MIC (Staphylococcus aureus [2]) [mg/L] | MIC (Staphylococcus aureus [3]) [mg/L] | MIC (Staphylococcus aureus [4]) [mg/L] | MIC (Enterococcus faecalis) [mg/L] | MIC (Enterococcus faecium) [mg/L] | MIC (Escherichia coli) [mg/L]
CCCCCC[C@H](C)/C=C(\C)C(=O)O[C@@]1(C)C(=O)C=C2C=C(c3c(C)cccc3O)OC=C2C1=O | > 10 |  |  |  |  |  |  | 
CCCCCC[C@H](C)/C=C(\C)C(=O)O |  | 25 (≈ 126 µM) | 25 (≈ 126 µM) | > 50 | > 50 | > 50 | > 50 | > 50
CCCCCC[C@H](C)/C=C(\C)C(=O)O[C@@]1(C)C(=O)C=C2C=C(C3=C(C)C[C@@H](O)CC3=O)OC=C2C1=O | > 10 |  |  |  |  |  |  | 
CN[C@H](CC(C)C)C(=O)N[C@H]1C(=O)N[C@@H](CC(N)=O)C(=O)N[C@H]2C(=O)N[C@H]3C(=O)N[C@H](C(=O)N[C@H](C(=O)O)c4cc(O)cc(O)c4-c4cc3ccc4O)[C@H](O)c3ccc(c(Cl)c3)Oc3cc2cc(c3O[C@@H]2O[C@H](CO)[C@@H](O)[C@H](O)[C@H]2O[C@H]2C[C@](C)(N)[C@H](O)[C@H](C)O2)Oc2ccc(cc2Cl)[C@H]1O.Cl [VANCOMYCIN HYDROCHLORIDE] |  | 0.78 | 1.56 | 0.78 | 0.78 | > 50 | 0.78 | > 50
CCCCCC[C@H](C)/C=C(\C)C(=O)O[C@]1(C)C(=O)C2=COC(c3c(C)cccc3O)=CC2=C(Br)C1=O | > 10 | 12.5 (≈ 22.4 µM) | 3.13 (≈ 5.61 µM) | 6.25 (≈ 11.2 µM) | 12.5 (≈ 22.4 µM) | 3.13 (≈ 5.61 µM) | 12.5 (≈ 22.4 µM) | > 50
CCCCCC[C@H](C)/C=C(\C)C(=O)O[C@@]1(C)C(=O)C2=COC(c3c(C)cccc3O)=CC2=C(Cl)C1=O | > 10 |  |  |  |  |  |  | 
Cc1cccc(O)c1C1=CC2=C(Cl)C(=O)[C@@](C)(O)C(=O)C2=CO1 | > 10 |  |  |  |  |  |  | 
CCCCCC[C@H](C)/C=C(\C)C(=O)O[C@@]1(C)C(=O)C2=COC(C3=C(C)CC(O)CC3=O)=CC2=C(Cl)C1=O (some centres not stated) | > 10 |  |  |  |  |  |  | 
CCCCCC[C@H](C)/C=C(\C)C(=O)O[C@@]1(C)C(=O)c2c(cc(O)c3c2C[C@H](O)C[C@]3(C)O)[C@](C)(O)C1=O |  | 12.5 (≈ 24.2 µM) | 3.13 (≈ 6.06 µM) | > 50 | 12.5 (≈ 24.2 µM) | 12.5 (≈ 24.2 µM) | 25 (≈ 48.4 µM) | > 50
Cc1cccc(O)c1C1=CC2=CC(=O)[C@](C)(O)C(=O)C2=CO1 | > 10 |  |  |  |  |  |  | 
CCCCCC[C@H](C)/C=C(\C)C(=O)O[C@@]1(C)C(=O)c2c(cc(O)c3c(C)cccc23)[C@](C)(O)C1=O |  | > 50 | > 50 | > 50 | > 50 | > 50 | > 50 | > 50
CCCCCC[C@H](C)/C=C(\C)C(=O)O[C@]1(C)C(=O)C2=COC(C3=C(C)C[C@@H](O)CC3=O)=CC2=C(Br)C1=O | > 10 | 50 (≈ 86.9 µM) | 12.5 (≈ 21.7 µM) | 12.5 (≈ 21.7 µM) | 25 (≈ 43.4 µM) | 25 (≈ 43.4 µM) | 25 (≈ 43.4 µM) | > 50
Cc1onc(-c2ccccc2)c1C(=O)N[C@@H]1C(=O)N2[C@@H]1SC(C)(C)[C@@H]2C(=O)[O-].[Na+] |  | > 50 | > 50 | 0.2 | 0.39 | > 50 | > 50 | > 50
